Tests used:
[1] = LD50, orally, mouse (acute toxicity); details: in vivo, po
[2] = test system: edema triggered by injecting a carrageenin suspension into the sole of the foot of the rat; experiment: carrageenin-induced edema test (Winter and Risley), anti-inflammatory effect; format: in vivo; details: po, orally, read-out: AD30 orally (active dose 30, inhibiting edema development by 30%)
Method: (§1) The anti-inflammatory effect of the new drugs was determined in two tests.
(a) In the carrageenin-induced edema test according to Winter, C. A. and Risley, E. A. (Proc. Soc. Exp. Biol. Med. 1962, 111, 544-547) the protection conferred by the drug administered orally to the rat against an edema triggered by injecting a carrageenin suspension into the sole of the foot of the rat was investigated. The table below gives the "active dose 30" (inhibiting edema development by 30%) of both compounds.

[3] = test system: erythema (produced by exposure to ultraviolet radiation) of the shaved back of the guinea pig; experiment: UV erythema test on the guinea pig (Winder et al.), anti-inflammatory effect; format: in vivo, albino guinea pig; details: Cavia porcellus, po, orally, read-out: Active Dose 50 (decreased erythema by 50%)
Method: as §1
(b) In the UV erythema test on the guinea pig (Winder, C. V., Wax, J., Burr, V., Been, M., Rosiere, C. E., Arch. Int. Pharmacodyn., 116, 261, 1958) the protective activity against precocious inflammation in the albino guinea pig was investigated. A determination was made of the active dose 50 which, administered orally to the animal, decreased erythema (produced by exposure to ultraviolet radiation) of the shaved back of the guinea pig by 50%.

[4] = test system: painful contractures, caused by intraperitoneal injection of a dilute acetic acid solution; experiment: analgesic activity in the mouse by the method of Koster (acetic acid contractures); format: in vivo; details: po, orally, read-out: Active Dose 50 (diminished painful contractures by 50%)
Description: The analgesic activity can be determined in the mouse by the method of Koster, R., Anderson, M., Debeer, E. J., Federation Proc., 1959, 18, 412. A determination was made of the active dose 50 of the drug which, administered orally, diminished painful contractures, caused by intraperitoneal injection of a dilute acetic acid solution, by 50%.

| Compound | LD50 [1] | ED30 [2] | ED50 [3] | ED50 [4] |
| --- | --- | --- | --- | --- |
| CC(C(=O)O)c1ccc(-n2cccc2)c(N)c1 (centres unmarked) [Compound B, 2-(3'-amino-4'-[1"-pyrrolyl]phenyl) propionic acid] | 3000 mg/kg | 12 mg/kg | 4.7 mg/kg | 19 mg/kg |
| CC(C(=O)O)c1ccc(-n2cccc2)c([N+](=O)[O-])c1 (centres unmarked) [Compound A, 2-(3'-nitro-4'-[1"-pyrrolyl]phenyl) propionic acid] | 3200 mg/kg | 12 mg/kg | 18.4 mg/kg | 50 mg/kg |

Source: US4190665A, “Substituted arylaliphatic acids” (Lipha, Lyonnaise Industrielle Pharmaceutique, priority 1976, dated 1980)
